# According to US9938292B2 (GUANGDONG ZHONGSHENG PHARMACEUTICAL CO., LTD, priority 2014, dated 2018):
# Tested on: Hedgehog signaling pathway
# Experiment: Gli-Luc luciferase reporter gene assay in C3H10T1/2/Gli-Luc cells under Shh-N stimulation
# Type: cell-based
# Settings: Mus musculus, C3H 10T1/2, 24 h, luciferase RLU, read-out: biological activity: IC50 of the inhibitory activities of compounds on the hedgehog pathway
# From the text: The luciferase (Gli-Luc) reporter gene with Gli response element was transfected into C3H10T1/2 cells, under Shh-N stimulation conditions, determine the Hedgehog signaling pathway inhibitors through the detection of gene expression in cell activity report. In this study, we evaluated the inhibitory effects of compounds on Hedgehog signaling pathway in the IC50 value of the compound as an index.
# Cell lines: C3H10T1/2/Gli-Luc stable cell line • C3H10T1/2/Gli-Luc Cell culture medium (DMEM/high glucose HyClone, #SH30022.01B; 10% serum Hyclone, #SV30087; 0.4% Hygromycin B Roche, #13398200) • 0.25% Trypsin-EDTA (Gibco, #25200)
# Shh-N, HEK293/SHH-N stable cell culture supernatant
# Inoculate the logarithmic growth phase of C3H10T1/2/Gli-Luc cells into a 96-well culture plate with 20000 cells per well, cells were cultured in a 37° C., 5% CO2 incubator overnight. The next day, the compounds were diluted in the following ways: the positive compound GDC0449 (1 mM) and the compounds (1 mM) to be measured were serially diluted to 7 concentrations by DMSO according to 1:3 and 1:10 respectively, the eighth is for DMSO control, and then diluted with fresh medium 100 times. The medium of the cells cultured overnight was removed, 80 μL fresh culture medium was added per well, then 20 μL gradiently diluted positive compound and compounds to be measured and 100 μL 30 nM Shh-N containing conditioned medium were added, each concentration repeated 2 wells, at the same time, positive and negative reference well were set (i.e. Shh Ctrl: 80 μL fresh medium+20 μL 1% DMSO containing medium+100 μL 30 nM Shh-N containing conditioned medium; Unstimulated Ctrl: 180 μL fresh medium+20 μL 1% DMSO containing medium), cells were cultured in the incubator for further 24 h.
# Intracellular luciferase activity detection: take the cells out of 96-well plate, discard the culture medium, the cells were washed with PBS twice, then each well added with 20 μL lysate (Promega E1531), oscillate pyrolysis at room temperature for 30 min. 5 μL cell lysates were transferred to 384-well plate (Greiner 781074), then each well was added with 25 μL luciferase reaction liquid (Promega E1501), after rapid mixed, immediately placed into the VarioSkan Flash multi-function reading instrument to read the relative light units (RLU) value.
# Data analysis: using Prism's GraphPad 5 for data analysis. RLU reading to the logarithmic mapping of compound concentration on behalf of luciferase activity, and then curve fitting using the following equation to give IC50 value, Y (RLU)=minimum+(maximum−minimum)/(1+10^(log of compound concentration−Log IC50)).
row,SMILES,IC50
1,COc1cccc(N2CCN(c3ccc(-n4cc(C)c5c(-c6ccc(C#N)cc6)cccc5c4=O)cc3)CC2(C)C)c1 [Embodiment 5],100 to 500 nM
2,COc1c(-c2ccc(N3C[C@@H](C)O[C@@H](C)C3)nc2)cnc2c(-c3ccc(C)nc3)cccc12 [Embodiment 163],100 to 500 nM
3,"COc1c(-c2ccc(N3C[C@@H](C)O[C@@H](C)C3)cc2)nnc2c(-c3ccc(C#N)cc3)cccc12 [Embodiment 152, 4-(3-(4-((2R,6S)-2,6-dimethylmorpholino)phenyl)-4-methoxycinnolin-8-yl) benzonitrile]",≤ 50 nM
4,Cc1cn(-c2ccc(N3CC4CC3CO4)cc2)c(=O)c2cccc(-c3ccc(C#N)cc3)c12 (stereo not drawn) [Embodiment 6],500 to 1000 nM
5,"Cc1cn(-c2ccc(N3C[C@@H](C)O[C@@H](C)C3)cc2)c(=O)c2ccnc(-c3ccc(C#N)cc3)c12 [Embodiment 81, 4-(6-(4-((2S,6R)-2,6-dimethylmorpholino)phenyl)-8-methyl-5-oxo-5,6-dihydro-2,6-naphthyridin-1-yl)benzonitrile]",1000 to 5000 nM
6,COc1c(-c2ccc(N3C[C@H](C)C[C@H](C)C3)cc2)cnc2c(-c3ccc(C#N)cc3)cccc12 [Embodiment 113],≤ 50 nM
7,COc1c(-c2ccc(N3C[C@@H](C)O[C@@H](C)C3)cc2)cnc2c(-c3cnn(C)c3)cccc12 [Embodiment 108],100 to 500 nM
8,CCC(=O)N1CCN(c2ccc(-n3cc(C)c4c(-c5ccc(C#N)cc5)cccc4c3=O)cc2)CC1C (stereo not drawn) [Embodiment 17],50 to 100 nM
9,COc1c(-c2ccc(N3C[C@@H](C)O[C@@H](C)C3)cc2)cnc2c(-c3ccc(C#N)c(F)c3)cccc12 [Embodiment 102],50 to 100 nM
10,Cc1cn(-c2ccc(N3CC(C)N(c4nccs4)C(C)C3)cc2)c(=O)c2cccc(-c3ccc(C#N)cc3)c12 (stereo not drawn) [Embodiment 38],≤ 50 nM
11,Cc1cn(-c2ccc(N3CC(C)OC(C)C3)cc2)c(=O)c2cccc(-c3ccc(C#N)cc3)c12 (stereo not drawn) [Embodiment 2],100 to 500 nM
12,COc1c(-c2ccc(N3C[C@@H](C)O[C@@H](C)C3)cc2)cnc2c(-c3ccc(OC(F)(F)F)cc3)cccc12 [Embodiment 91],≤ 50 nM
13,C[C@@H]1CN(c2ccc(-n3ccc4c(-c5ccc(C(F)(F)F)cc5)cccc4c3=O)cc2)C[C@H](C)O1 [Embodiment 74],1000 to 5000 nM
14,"COc1c(-c2csc(N3C[C@@H](C)O[C@@H](C)C3)n2)cnc2c(-c3ccc(C#N)cc3)cccc12 [Embodiment 179, 4-(3-(2-(2,6-dimethylmorpholin-4-yl)thiazol-4-yl)-4-methoxyquinolin-8-yl) benzonitrile]",500 to 1000 nM
15,COc1c(-c2ccc(N3C[C@@H](C)O[C@@H](C)C3)cc2)cnc2c(-c3ccc(S(C)(=O)=O)cc3Cl)cccc12 [Embodiment 103],50 to 100 nM
16,COc1c(-c2ccc(N3C[C@@H](C)O[C@@H](C)C3)nc2)cnc2c(-c3ccccc3)cccc12 [Embodiment 162],≤ 50 nM
17,COc1c(-c2ccc(N3C[C@@H](C)O[C@@H](C)C3)cc2)cnc2c(-c3ccc(F)nc3)cccc12 [Embodiment 93],≤ 50 nM
18,COc1c(-c2ccc(N3C[C@@H](C)O[C@@H](C)C3)cc2C)cnc2c(-c3ccc(C#N)cc3)cccc12 [Embodiment 169],≤ 50 nM
19,"COc1c(-c2ccc(N3C[C@@H](C)O[C@@H](C)C3)cc2)cnc2c(-c3ccc(C(F)(F)F)cc3)cccc12 [Embodiment 89, (2R,6S)-4-(4-(4-methoxy-8-(4-(trifluoromethyl)phenyl)quinolin-3-yl)phenyl)-2,6-dimethylmorpholine]",≤ 50 nM
20,"COc1c(N2C3CCC2CC(N2C[C@@H](C)O[C@@H](C)C2)C3)cnc2c(-c3ccc(C#N)cc3)cccc12 (stereo partly drawn) [Embodiment 230, 4-(3-(3-(2,6-dimethylmorpholino-4-yl)-8-azabicyclo[3.2.1]octan-8-yl)-4-methoxyquinolin-8-yl)benzonitrile]",100 to 500 nM
21,"CCOc1c(-c2ccc(N3C[C@@H](C)O[C@@H](C)C3)cc2)cnc2c(-c3ccc(C#N)cc3)cccc12 [Embodiment 143, 4-(3-(4-((2S,6R)-2,6-dimethylmorpholino)phenyl)-4-ethoxyquinolin-8-yl)benzonitrile]",≤ 50 nM
22,Cc1cn(-c2ccc(N3C[C@@H](C)O[C@@H](C)C3)cc2)c(=O)c2ccnc(-c3ccc(C#N)s3)c12 [Embodiment 84],1000 to 5000 nM

# Further lines, results first:
row,IC50,SMILES
1,≤ 50 nM,COc1c(N2CCN(C(=O)N(C)C3CCOCC3)CC2)cnc2c(-c3ccc(C#N)cc3)cccc12 [Embodiment 213]
2,≤ 50 nM,"COc1c(-c2ccc(N3C[C@@H](C)N(C(=O)CO)[C@@H](C)C3)nc2)cnc2c(-c3ccc(C#N)cc3)cccc12 [Embodiment 189, 4-(3-(6-(4-(2-hydroxyacetyl)-3,5-dimethylpiperazin-1-yl)pyridin-3-yl)-4-methoxyquinolin-8-yl)benzonitrile]"
3,50 to 100 nM,COc1c(-c2ccc(N3C[C@@H](C)N(C(=O)C(C)O)[C@@H](C)C3)nc2)cnc2c(-c3ccc(C#N)cc3)cccc12 (stereo partly drawn) [Embodiment 195]
4,≤ 50 nM,"COc1c(-c2ccc(N3C[C@@H](C)N(S(C)(=O)=O)[C@@H](C)C3)nc2)cnc2c(-c3ccc(C#N)cc3)cccc12 [Embodiment 188, 4-(3-(6-(4-methylsulfonyl-3,5-dimethylpiperazin-1-yl)pyridin-3-yl)-4-methoxyquinolin-8-yl)benzonitrile]"
5,≤ 50 nM,"COc1c(N2CCN(C(=O)C3CC3)CC2)cnc2c(-c3ccc(C#N)cc3)cccc12 [Embodiment 248, 4-(3-(4-cyclopropanecarbonylpiperazin-1-yl)-4-methoxyquinolin-8-yl)benzonitrile]"
6,≤ 50 nM,"CC(C)(O)c1ccc(N2CCN(c3cnc4c(-c5ccc(C#N)cc5)cccc4c3C3CC3)CC2=O)nc1 [Embodiment 236, 4-(4-cyclopropyl-3-(4-(5-(1-hydroxy-1-methyl-ethyl)pyridin-2-yl)-3-oxo-piperazin-1-yl)quinolin-8-yl)benzonitrile]"
7,≤ 50 nM,"COc1c(N2CCC(N3C[C@@H](C)O[C@@H](C)C3)CC2)cnc2c(-c3ccc(C#N)cc3)cccc12 [Embodiment 227, 4-(3-(4-(2,6-dimethylmorpholino)piperidin-1-yl)-4-methoxyquinolin-8-yl) benzonitrile]"
8,≤ 50 nM,CCC(=O)N1[C@H](C)CN(c2ccc(-c3cnc4c(-c5ccc(C#N)cc5)cccc4c3OC)cn2)C[C@@H]1C [Embodiment 204]
9,100 to 500 nM,COc1c(N2CCN(c3ncc(C(C)(C)O)cc3C(F)(F)F)CC2)cnc2c(-c3ccc(C#N)cc3)cccc12 [Embodiment 223]
10,≤ 50 nM,COc1c(N2CCN(c3cnc(C(C)(C)O)cn3)C(C)C2)cnc2c(-c3ccc(C#N)cc3)cccc12 (stereo not drawn) [Embodiment 225]
11,100 to 500 nM,"COc1c(N2CCn3c(nnc3C(F)(F)F)C2)cnc2c(-c3ccc(C#N)cc3)cccc12 [Embodiment 247, 4-(4-methoxy-3-(3-trifluoromethyl-5,6-dihydro-8H-[1,2,4]triazolo[4,3-a]pyrazin-7-yl)quinolin-8-yl)benzonitrile]"
12,50 to 100 nM,CCCOC(=O)N1[C@H](C)CN(c2ccc(-c3cnc4c(-c5ccc(C#N)cc5)cccc4c3OC)cc2)C[C@@H]1C [Embodiment 184]
13,≤ 50 nM,COc1c(-c2ccc(N3C[C@@H](C)N(C(=O)c4ccccn4)[C@@H](C)C3)cc2)cnc2c(-c3ccc(C#N)cc3)cccc12 [Embodiment 186]
14,100 to 500 nM,"COc1c(-c2ccc(N3C[C@@H](C)N(C(=O)C(C)F)[C@@H](C)C3)nc2)cnc2c(-c3ccc(C#N)cc3)cccc12 (stereo partly drawn) [Embodiment 193, 4-(3-(6-((3S, 5R)-4-(2-fluoropropanoyl)-3,5-dimethylpiperazin-1-yl)pyridin-3-yl)-4-methoxyquinolin-8-yl)benzonitrile]"
15,100 to 500 nM,"COc1c(C2(O)CCN(c3ccc(C(C)(C)O)cn3)CC2)cnc2c(-c3ccc(C#N)cc3)cccc12 [Embodiment 240, 4-(3-(4-hydroxy-5′-(1-hydroxy-1-methyl-ethyl)-3,4,5,6-tetrahydro-2H-[1,2′]bipyridyl-4-yl)4-methoxyquinolin-8-yl)benzonitrile]"
16,≤ 50 nM,"CC(C)(O)c1ccc(N2CCN(c3cnc4c(-c5ccc(C#N)cc5)cccc4c3C(F)(F)F)CC2)nc1 [Embodiment 218, 4-(3-(4-(5-(2-hydroxypropan-2-yl)pyridin-2-yl)piperazin-1-yl)-4-(trifluoromethyl)quinolin-8-yl)benzonitrile]"
17,≤ 50 nM,"C[C@@H]1CN(c2ccc(-c3cnc4c(-c5ccccn5)cccc4c3C3CC3)cc2)C[C@H](C)O1 [Embodiment 263, (2S,6R)-4-(5-(4-8-cyclopropyl-(2-pyridinyl)quinolin-3-yl)pyridin-2-yl)-2,6-dimethylmorpholine]"
